In ChEMBL document CHEMBL1201862, “PubChem BioAssay data set” (2004):
Activity calls are given as the source filed them.

Legend:
Vero = experiment: cells; assay type: functional, cell-based; settings: Chlorocebus sabaeus
[1] = viability of uninfected HEp-2 cells – cell-based, HTS, cytotoxicity control for RSV inhibitor project, dose response (AID 2410); assay type: functional; settings: human respiratory syncytial virus
cells [2] = experiment: cells
[3] = biological target: Photoreceptor-specific nuclear receptor (Homo sapiens, UniProt Q9Y5X4); experiment: ligands suppressing NR2E3 nuclear receptor activity – biochemical, TR-FRET, dose response (AID 463256); assay type: functional
Sequence of Photoreceptor-specific nuclear receptor (Q9Y5X4 whole entry): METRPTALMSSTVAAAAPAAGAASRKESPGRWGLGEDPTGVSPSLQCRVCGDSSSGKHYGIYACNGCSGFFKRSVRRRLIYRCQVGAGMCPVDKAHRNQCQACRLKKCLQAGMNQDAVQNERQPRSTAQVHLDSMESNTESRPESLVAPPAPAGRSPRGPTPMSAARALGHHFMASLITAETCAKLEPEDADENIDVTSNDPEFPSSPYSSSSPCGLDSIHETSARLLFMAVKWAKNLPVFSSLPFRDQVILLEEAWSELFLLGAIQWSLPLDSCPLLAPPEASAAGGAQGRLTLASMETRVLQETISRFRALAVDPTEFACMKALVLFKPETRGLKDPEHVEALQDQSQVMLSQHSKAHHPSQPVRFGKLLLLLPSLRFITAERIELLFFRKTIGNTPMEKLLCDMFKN

[4] = biological target: Peroxisome proliferator-activated receptor gamma/Nuclear receptor corepressor 2 (Homo sapiens, UniProt P37231+Q9Y618); experiment: Counterscreen for NR2E3 inverse agonists: TR-FRET-based biochemical high throughput dose response assay to identify inverse agonists of the interaction between peroxisome proliferator-activated receptor gamma (PPARg) and nuclear receptor co-repressor 2 (NCOR2).; assay type: functional
Sequence of Peroxisome proliferator-activated receptor gamma/Nuclear receptor corepressor 2 (P37231 whole entry): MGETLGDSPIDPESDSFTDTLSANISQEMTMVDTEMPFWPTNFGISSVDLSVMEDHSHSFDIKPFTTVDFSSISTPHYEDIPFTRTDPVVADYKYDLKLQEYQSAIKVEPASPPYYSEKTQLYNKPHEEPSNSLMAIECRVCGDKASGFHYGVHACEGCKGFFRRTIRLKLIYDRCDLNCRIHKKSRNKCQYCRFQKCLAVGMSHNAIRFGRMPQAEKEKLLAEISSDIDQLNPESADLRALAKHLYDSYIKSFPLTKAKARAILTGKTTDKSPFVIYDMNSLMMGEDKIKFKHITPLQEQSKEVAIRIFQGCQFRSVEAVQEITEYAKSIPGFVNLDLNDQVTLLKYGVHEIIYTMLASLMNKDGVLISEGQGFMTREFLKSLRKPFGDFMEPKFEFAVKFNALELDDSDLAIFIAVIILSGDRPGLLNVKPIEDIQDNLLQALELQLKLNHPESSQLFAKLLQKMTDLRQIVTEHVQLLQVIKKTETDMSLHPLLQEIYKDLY
Sequence of Peroxisome proliferator-activated receptor gamma/Nuclear receptor corepressor 2 (Q9Y618 whole entry): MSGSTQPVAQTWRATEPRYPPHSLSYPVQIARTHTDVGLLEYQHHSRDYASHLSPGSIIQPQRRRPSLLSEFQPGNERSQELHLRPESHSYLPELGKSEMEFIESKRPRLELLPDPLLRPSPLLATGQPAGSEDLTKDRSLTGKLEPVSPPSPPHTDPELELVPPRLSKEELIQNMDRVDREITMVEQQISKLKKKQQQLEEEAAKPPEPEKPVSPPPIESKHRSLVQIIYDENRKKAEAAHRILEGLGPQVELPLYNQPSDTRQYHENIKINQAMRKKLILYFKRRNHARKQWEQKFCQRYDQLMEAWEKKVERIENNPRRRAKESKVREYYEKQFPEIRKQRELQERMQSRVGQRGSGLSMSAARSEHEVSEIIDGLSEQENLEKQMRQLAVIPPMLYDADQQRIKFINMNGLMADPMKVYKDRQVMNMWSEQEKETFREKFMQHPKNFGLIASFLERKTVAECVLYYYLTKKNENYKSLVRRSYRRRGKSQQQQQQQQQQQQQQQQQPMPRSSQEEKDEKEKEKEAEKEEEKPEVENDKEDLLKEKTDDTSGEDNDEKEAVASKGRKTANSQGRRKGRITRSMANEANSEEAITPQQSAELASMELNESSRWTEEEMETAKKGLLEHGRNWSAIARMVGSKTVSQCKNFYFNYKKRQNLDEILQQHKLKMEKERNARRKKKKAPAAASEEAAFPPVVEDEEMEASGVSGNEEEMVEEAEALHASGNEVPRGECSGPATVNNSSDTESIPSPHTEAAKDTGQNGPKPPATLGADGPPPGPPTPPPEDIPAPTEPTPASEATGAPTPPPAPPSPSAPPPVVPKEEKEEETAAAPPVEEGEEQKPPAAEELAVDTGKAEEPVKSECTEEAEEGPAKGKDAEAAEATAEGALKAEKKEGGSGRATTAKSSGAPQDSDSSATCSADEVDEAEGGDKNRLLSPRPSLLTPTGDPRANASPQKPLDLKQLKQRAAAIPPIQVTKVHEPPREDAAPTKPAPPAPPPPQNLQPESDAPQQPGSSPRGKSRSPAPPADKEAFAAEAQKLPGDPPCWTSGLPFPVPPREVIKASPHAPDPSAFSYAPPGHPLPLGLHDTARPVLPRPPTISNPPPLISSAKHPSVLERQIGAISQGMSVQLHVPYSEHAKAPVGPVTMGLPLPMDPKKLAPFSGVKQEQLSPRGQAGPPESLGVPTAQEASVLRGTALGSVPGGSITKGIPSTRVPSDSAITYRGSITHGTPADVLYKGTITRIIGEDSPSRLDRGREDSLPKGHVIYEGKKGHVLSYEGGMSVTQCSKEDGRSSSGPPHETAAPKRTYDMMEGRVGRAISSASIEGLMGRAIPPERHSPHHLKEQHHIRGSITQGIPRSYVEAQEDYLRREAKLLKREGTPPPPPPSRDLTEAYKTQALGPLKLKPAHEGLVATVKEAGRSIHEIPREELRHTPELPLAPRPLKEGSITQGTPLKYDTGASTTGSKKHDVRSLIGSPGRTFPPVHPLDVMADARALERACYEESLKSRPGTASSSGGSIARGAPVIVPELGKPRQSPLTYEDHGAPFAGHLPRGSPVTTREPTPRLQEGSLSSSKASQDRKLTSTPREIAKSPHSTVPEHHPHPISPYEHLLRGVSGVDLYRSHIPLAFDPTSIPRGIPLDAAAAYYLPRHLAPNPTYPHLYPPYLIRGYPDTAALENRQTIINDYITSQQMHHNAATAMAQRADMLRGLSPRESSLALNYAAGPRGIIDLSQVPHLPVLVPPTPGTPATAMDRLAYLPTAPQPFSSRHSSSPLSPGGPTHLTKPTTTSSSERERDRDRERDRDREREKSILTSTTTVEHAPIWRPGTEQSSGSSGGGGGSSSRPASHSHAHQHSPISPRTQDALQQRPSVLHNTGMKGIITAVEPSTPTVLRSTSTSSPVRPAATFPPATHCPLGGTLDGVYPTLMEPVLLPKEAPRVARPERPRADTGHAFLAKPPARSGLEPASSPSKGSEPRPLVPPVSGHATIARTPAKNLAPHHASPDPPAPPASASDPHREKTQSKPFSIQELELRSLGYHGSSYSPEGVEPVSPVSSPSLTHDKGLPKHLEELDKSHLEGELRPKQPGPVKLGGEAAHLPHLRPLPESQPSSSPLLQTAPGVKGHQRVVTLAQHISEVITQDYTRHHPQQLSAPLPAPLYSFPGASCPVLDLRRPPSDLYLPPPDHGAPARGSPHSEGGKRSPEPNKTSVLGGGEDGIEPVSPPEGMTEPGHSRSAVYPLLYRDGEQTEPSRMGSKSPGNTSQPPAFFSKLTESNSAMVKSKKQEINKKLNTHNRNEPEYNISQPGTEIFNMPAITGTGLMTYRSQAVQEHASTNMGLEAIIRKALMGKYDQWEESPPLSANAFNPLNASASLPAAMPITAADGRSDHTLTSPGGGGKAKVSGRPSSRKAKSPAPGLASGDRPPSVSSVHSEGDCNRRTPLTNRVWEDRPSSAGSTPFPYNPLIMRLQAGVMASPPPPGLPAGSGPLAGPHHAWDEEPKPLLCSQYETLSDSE

[5] = biological target: T1, Microphthalmia-associated transcription factor (Homo sapiens, UniProt O75030); experiment: reducers of TRPM1 reporter luminescence, concentration series – cell-based, SK-MEL-5, cherry-picked, set 3, MITF inhibitor project, dose response (AID 493073); assay type: functional;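 also: SK-MEL-5 melanoma cells with luciferase driven by the MITF target TRPM1 promoter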
T1 sequence (O75030 whole entry): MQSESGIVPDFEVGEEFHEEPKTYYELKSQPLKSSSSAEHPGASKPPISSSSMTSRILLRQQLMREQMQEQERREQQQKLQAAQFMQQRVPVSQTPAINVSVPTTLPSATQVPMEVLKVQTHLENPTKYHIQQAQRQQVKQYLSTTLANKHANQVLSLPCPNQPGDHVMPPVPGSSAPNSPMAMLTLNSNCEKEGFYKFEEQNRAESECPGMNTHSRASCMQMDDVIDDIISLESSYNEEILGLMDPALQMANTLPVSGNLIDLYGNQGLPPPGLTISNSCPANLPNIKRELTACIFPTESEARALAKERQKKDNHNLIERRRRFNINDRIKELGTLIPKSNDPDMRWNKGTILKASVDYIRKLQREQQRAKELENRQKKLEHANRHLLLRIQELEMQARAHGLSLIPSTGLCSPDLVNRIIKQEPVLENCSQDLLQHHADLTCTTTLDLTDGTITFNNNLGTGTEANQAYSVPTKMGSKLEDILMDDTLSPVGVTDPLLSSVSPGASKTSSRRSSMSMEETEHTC

[6] = ADP-Glo luciferase signal interference – biochemical, luminescence, cherry-picked samples, set 2, artefact control for CDK5 inhibitor project, dose response (AID 504546); assay type: functional, cell-based
[7] = biological target: Cyclin-dependent kinase 5/CDK5 activator 1 (Homo sapiens, UniProt Q00535); experiment: blockade of human CDK5 activity – biochemical, cherry-picked samples, set 2, dose response (AID 504545)
HEK293 = experiment: EBV LMP1 TES2 canonical NF-kB signalling blockers – cell-based, HEK293, luciferase, cherry-pick, dose response (AID 588343); assay type: functional; settings: Homo sapiens
[8] = biological target: Lysosomal acid glucosylceramidase (Homo sapiens, UniProt P04062); experiment: Dose response cell-based high throughput screening assay to identify enhancers of beta-glucosidase activity. [Related pubchem assays: 784 ]; assay type: functional
Sequence of Lysosomal acid glucosylceramidase (P04062 whole entry): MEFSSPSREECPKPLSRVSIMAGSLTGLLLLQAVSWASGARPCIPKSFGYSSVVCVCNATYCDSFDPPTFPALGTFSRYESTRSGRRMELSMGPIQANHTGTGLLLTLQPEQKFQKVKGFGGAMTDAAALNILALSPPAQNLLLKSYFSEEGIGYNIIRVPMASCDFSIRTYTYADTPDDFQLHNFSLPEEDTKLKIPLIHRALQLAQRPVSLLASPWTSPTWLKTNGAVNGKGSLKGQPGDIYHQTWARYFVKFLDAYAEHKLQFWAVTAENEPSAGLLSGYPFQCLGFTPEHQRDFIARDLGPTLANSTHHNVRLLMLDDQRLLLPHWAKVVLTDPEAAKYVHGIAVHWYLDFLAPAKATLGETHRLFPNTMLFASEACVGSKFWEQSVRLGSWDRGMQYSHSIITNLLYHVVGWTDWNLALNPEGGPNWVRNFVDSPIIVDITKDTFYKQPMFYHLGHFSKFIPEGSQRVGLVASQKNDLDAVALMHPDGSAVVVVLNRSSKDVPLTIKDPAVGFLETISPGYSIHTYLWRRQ

Streptococcus = experiment: Luminescence Microorganism-Based Dose Response Follow up to Identify Compounds Cytotoxic to Streptococcus. [Related pubchem assays: 1677 (Project Summary), 1915, 1914, 1902 (Retest at Dose), 1900 (Counter Screen), 1662 (Primary HTS)]; assay type: functional, organism-based
[9] = Luminescence Cell-Based Dose Response HTS to Identify Activators of Luciferase Translation or Activity in H4 […] Cells. [Related pubchem assays: 1829 (Project Summary), 1814 (Primary HTS)]; assay type: functional
[10] = Luminescence Cell-Based Dose Confirmation HTS to Identify Activators of 5'UTR Stem-Loop Driven Alpha-Synuclein mRNA Translation in H4 Neuroglioblastoma Cells. [Related pubchem assays: 1829 (Project Summary), 1814 (Primary HTS)]; assay type: functional
[11] = biological target: Mitogen-activated protein kinase 10 (Homo sapiens, UniProt P53779); experiment: Dose response biochemical screening assay for inhibitors of c-Jun N-Terminal Kinase 3 (JNK3). [Related pubchem assays: 746 ]
Sequence of Mitogen-activated protein kinase 10 (P53779 whole entry): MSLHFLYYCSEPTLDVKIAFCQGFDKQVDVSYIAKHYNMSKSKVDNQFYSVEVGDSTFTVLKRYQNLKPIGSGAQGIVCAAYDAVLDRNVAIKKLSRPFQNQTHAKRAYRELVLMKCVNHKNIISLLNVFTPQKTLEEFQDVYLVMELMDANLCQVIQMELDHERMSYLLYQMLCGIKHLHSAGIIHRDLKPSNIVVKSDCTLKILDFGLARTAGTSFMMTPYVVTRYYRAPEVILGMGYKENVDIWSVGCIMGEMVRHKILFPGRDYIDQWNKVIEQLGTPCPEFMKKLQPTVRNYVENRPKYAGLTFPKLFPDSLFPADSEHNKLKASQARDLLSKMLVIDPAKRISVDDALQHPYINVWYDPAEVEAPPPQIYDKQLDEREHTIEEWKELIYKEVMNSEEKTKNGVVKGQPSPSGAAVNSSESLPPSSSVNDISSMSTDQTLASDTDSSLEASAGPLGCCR

H4 = experiment: Luminescence Cell-Based Dose Response HTS to Identify Activators of 5'UTR Stem-Loop Driven Prion Protein mRNA Translation in H4 Neuroglioblastoma Cells. [Related pubchem assays: 1829 (Project Summary), 1814 (Primary HTS)]; assay type: functional; settings: Homo sapiens
Cytochrome P450 2D6 = Cytochrome P450 2D6 (Homo sapiens, UniProt P10635);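 also: CYP2D6 member of a cytochrome P450 panel assay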
Sequence of Cytochrome P450 2D6 (P10635 whole entry): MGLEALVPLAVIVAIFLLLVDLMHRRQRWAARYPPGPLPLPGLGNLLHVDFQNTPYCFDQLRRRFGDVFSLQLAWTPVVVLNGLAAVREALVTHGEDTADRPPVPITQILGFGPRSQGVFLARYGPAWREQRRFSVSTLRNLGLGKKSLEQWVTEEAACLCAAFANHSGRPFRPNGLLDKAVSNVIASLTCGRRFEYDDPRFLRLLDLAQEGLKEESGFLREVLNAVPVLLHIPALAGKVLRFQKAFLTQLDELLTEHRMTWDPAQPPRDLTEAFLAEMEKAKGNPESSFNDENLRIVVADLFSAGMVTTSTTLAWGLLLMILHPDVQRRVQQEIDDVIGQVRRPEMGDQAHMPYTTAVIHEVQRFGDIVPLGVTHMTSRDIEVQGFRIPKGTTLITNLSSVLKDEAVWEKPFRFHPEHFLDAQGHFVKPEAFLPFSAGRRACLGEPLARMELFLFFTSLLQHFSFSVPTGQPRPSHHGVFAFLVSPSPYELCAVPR

[12] = A Cell Based Secondary Assay To Explore Cytotoxicity of Compounds that Sensitize Mycobacterium Tuberculosis to Beta-Lactam Antibiotics.; assay type: functional
[13] = Trypanosoma cruzi growth suppression in host cells – NIH3T3 host cells, beta-gal luminescence, confirmation (AID 2044); assay type: functional, cell-based;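 also: intracellular parasites grown in NIH/3T3 mouse fibroblasts as host cells; luminescent beta-galactosidase reporter signal from transgenic T. cruzi replicating inside host cells; inhibitors lower the luminescence signal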
[14] = NIH3T3 cell viability loss – ATP luminescence, mouse fibroblasts, counter-screen, dose response (AID 2010); assay type: functional, cell-based;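 also: cells exposed to compound for about 90 hours before reading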
cells [15] = experiment: cells; remark: listed apart in the source
[16] = biological target: Voltage-gated inwardly rectifying potassium channel KCNH2 (Homo sapiens, UniProt Q12809); experiment: concentration-dependent hERG rescue from blockers – cell-based, thallium flux, dose response (AID 2121); assay type: ADME

Structure (SMILES): Cc1nn(Cc2c(Cl)cccc2Cl)c(C)c1NC(=O)c1cc(C(C)C)on1
- IC50 (Vero): 10.5 µM (active)
- CC50 [1]: 16.8 µM (active)
- IC50 (cells [2]): 11.3 µM (active)

Structure (SMILES): COc1ccc2cc3cc(C(=O)NCc4cccs4)oc3nc2c1
- IC50 [3]: 10.7 µM (not active)
- IC50 [4]: 12.9 µM (not active)

Structure (SMILES): N=C(NOC(=O)c1ccccc1)c1ccccn1
- AC50 [5]: 11.9 µM (active)
- AC50 [6]: 37.5 µM (active)
- AC50 [7]: 20.6 µM (active)
- AC50 (HEK293): 8.6 µM (active)

Structure (SMILES): Cc1cccc2sc(NC(=O)CN(C)S(=O)(=O)c3cccs3)nc12
- EC50 [8]: > 10 µM (not active)

Structure (SMILES): CN(C)c1ccc(C(=O)n2c3ccccc3c3ccccc32)cc1
- EC50 (Streptococcus): > 500 µM (not active)

Structure (SMILES): c1ccc(CNc2ncnc3c2cnn3-c2ccccc2)cc1
- EC50 [9]: 3.43 µM (active)
- EC50 [10]: > 120 µM (not active)
- IC50 [11]: 75.8 µM (not active)
- EC50 (H4): > 120 µM (not active)

Structure (SMILES): CCCCN(CC)S(=O)(=O)c1ccc(C(=O)Nc2nnc(CSC)o2)cc1
- AC50 (Cytochrome P450 2D6): 35.5 µM (inconclusive)
- CC50 [12]: 13.9 µM (active)
- EC50 [8]: > 10 µM (not active)

Structure (SMILES): CCOC(=O)C1CCCN(Cc2ccc(OCc3ccccc3)c(OC)c2)C1 (configuration not stated)
- EC50 [13]: < 0.1 µM (active)
- EC50 [14]: > 60 µM (not active)
- EC50 (cells [15]): 0.01 µM (active)

Structure (SMILES): Cc1ccc(C(=O)CC(=O)COc2ccc(Cl)cc2C)cc1
- EC50 [16]: 0.82 µM (active)
